One compound from patent US20250212873A1, “VOLATILE HDAC INHIBITORS FOR THERAPEUTIC AND PLANT APPLICATIONS” (The Regents of the University of California, priority 2022, published 2025) can be followed below.

Assay [1] deals with Arabidopsis thaliana leaflets. Nature of the assay: RNA-seq of leaflets of Arabidopsis exposed to diacetyl. In kind it is in vivo. As for the experimental part:
A. thaliana plants (Col-0) that had been transplanted at day 7 to soil were placed in the experimental room for 2 days to acclimate (23°° C. with a 12-hour light/dark cycle). A single potted plant was placed in a 4-liter clear glass jar, with openings attached to a vacuum to allow for air exchange. A small beaker containing 1 ml of 1% diacetyl in PO or PO alone were placed inside the jar. Plants were watered at 2.5 days. After 5 days, individual leaflets were dissected, and flash frozen in liquid nitrogen. Trizol-based RNA isolation was carried out as above. Two biological replicates were performed for each condition, with an average of 68,355,820 reads/replicate, with an average of 95% mapped. Multiplexed libraries were made from total RNA input using the Illumina TruSeq RNA sample preparation kit (v2) and 50 bps single-end sequencing was done using the NextSeq500.
The HDACs are also important for gene expression in the shoots as well. Young plants in pots were exposed to vapors of diacetyl from a solution of the same concentration as before and performed an RNASeq analyses. 321 genes were differentially regulated in the leaflet of Arabidopsis thaliana following exposure to volatile diacetyl for 5 days (FDR<0.05). These DEGs are distributed across multiple chromosome locations and represent genes of diverse molecular functions (FIG. 27C). […]

For assay [2], the system named is A. thaliana plants (Col-0). Nature of the assay: Weed killing assay. In kind it is in vivo, Arabidopsis thaliana. Particulars: 1% (volume/volume) in PO, 7 days vapor exposure, 4 weeks recovery. An excerpt:
Since large scale changes in gene expression occur it is presumed that higher doses of some of the compounds could negatively affect some plants, even causing death. Since Arabidopsis thaliana is also considered a type of weed and goes by the common name Thale cress, it was used as a model to test the weed killing potential at higher doses. In order to evaluate the activity of some of these volatiles in plant killing twenty-seven day old A. thaliana plants (Col-0), that had been transplanted at day 7 to soil, were placed in 10-gallon glass aquarium as chamber along with a petridish containing 2 ml of chemical dissolved in PO at 1% (volume/volume) or PO alone were placed at the other side of the container. Plants were exposed to odor vapors for 7 days and observed for death.
Twenty-seven day old A. thaliana plants (Col-0), that had been transplanted at day 7 to soil, were placed in 10-gallon glass aquarium as chamber along with a petridish containing 2 ml of chemical dissolved in PO at 1% (volume/volume) or PO alone were placed at the other side of the container. Plants were exposed to odor vapors for 7 days and observed for death.

Assay [3] has as its system Class I and Class II HDACs. Nature of the assay: In vitro assays with purified human Class I and II HDACs (panel statements). In kind it is biochemical. Conditions: 15 mM in 1% DMSO; HDAC 1, 3, 4 and 6. As for the experimental part:
Presented are data for selected compounds that act as Histone deacetylase inhibitors in vitro or HDAC inhibitors. 26 compounds were screened against purified human HDACs.
HDAC activity of class I HDACs (HDAC1 and 3) was measured with the fluorometric HDAC Activity Assay kit: HDAC1 (10011563, Cayman Chemical, Ann Arbor, MI) and HDAC3 (50073 BPS Bioscience, San Diego, CA), according to the manufacturer's instructions. HDAC activity of class II HDACs (HDAC4 and HDAC6) was measured with the fluorometric HDAC Activity Assay kit: HDAC4, […] (50064 and 50076, BPS Bioscience, San Diego, CA), according to the manufacturer's instructions. All compounds were tested in single dose duplicate mode at 15 mM concentrations in 1% DMSO, based on the IC50 of 2,3-butanedione established in earlier work. Due to interference, concentrations of >30 mM were not used in the IC50 calculation. To account for any interference at lower concentrations, all baseline measurements of blank wells (no HDAC enzyme) were performed and subtracted with the various concentrations of 2,3-butanedione.
Diacetyl and 3 structurally related VOCs were evaluated using in vitro assay kits for measuring activity of four purified HDACs. Of the four VOCs), each has a different functional group, two are natural in origin, previously detected from microbes that are known to be present in soil (M. C. Lemfack et al., Nucleic Acids Res 46, D1261-D1265 (2018); and R. H. Cagan, W. N. Zeiger, Proc. Nat. Acad. Sci. U.S.A. 75, 4679-4683 (1978)) and two that are not (α-angelica lactone and ethyl pyruvate). […] All 4 VOCs inhibited both Class I HDACs (L. L. Walling, The Myriad Plant Responses to Herbivores. J Plant Growth Regul 19, 195-216 (2000); and M. Heil, R. Karban, Trends Ecol Evol 25, 137-144 (2010)) and the Class II HDAC6 with differences in degree (FIG. 2A,B).

Assay [4] concerns A549 Cancer cell line. Nature of the assay: Cancer cell viability assay, A549. Format: cell-based, human. As for the experimental part:
Cells were maintained in a 37° C. incubator with 5% CO2 throughout the experiment. Compound stocks were dissolved in 10% DMSO, but final concentrations were made fresh in complete media as needed. 10% DMSO solvent was used as control in complete media. Cells were seeded onto 12-well plates and allowed 12-24 hours until treatment began to allow cells to adhere to wells. This was followed by minimum 5-day treatment of compounds, changing the media with treatment every 48 hours. Cell lines A549, PC3, and SK-MEL-5 were seeded at 8000 cells/well which would provide 80-100% confluency after 6-day growth. SH-SY5Y was seeded at 8000 cells/well then 16,000 cells/well due to slower growth and given at least 10 days for sufficient growth. After allotted growth times, cell counts were performed via Countess™ automated cell counter. All assays were completed with a minimum of triplicate replicates for all conditions and analyzed through GraphPad Prism One-way ANOVA for significance.

The structures appear in SMILES notation.

On to `CC(=O)C(C)=O` [2,3-butanedione], for which the “gene expression in leaflets (RNA-seq)” value in assay [1] (volatile exposure) is “significant changes in gene expression”. For the same compound, the “genes differentially regulated in the leaflet” value in assay [1] (volatile exposure 5 days, 1% in PO, FDR<0.05) is recorded as 321 genes. The “plants killed (dead)” value in assay [2] is reported as 6 of 8. In assay [3], the “HDAC inhibition against Class I and Class II HDACs” value is “inhibits both class 1 and class 2 HDACs”. The “changes in proliferation, A549” value in assay [4] (100 mM treatment, triplicates) is given as “No significant changes in proliferations”. Further, the “inhibition of cell growth, A549” value in assay [4] (33 micro-molar) is listed as “may be some A549 inhibition”.
